Molecules are shown by their SMILES. Structures can show the parent of a compound that is named as a salt.

In the test the target is T1, Fatty-acid amide hydrolase 1 [33-574] (Rattus norvegicus, UniProt P97612).
T1 construct: 33-574
T1 sequence (P97612 whole entry): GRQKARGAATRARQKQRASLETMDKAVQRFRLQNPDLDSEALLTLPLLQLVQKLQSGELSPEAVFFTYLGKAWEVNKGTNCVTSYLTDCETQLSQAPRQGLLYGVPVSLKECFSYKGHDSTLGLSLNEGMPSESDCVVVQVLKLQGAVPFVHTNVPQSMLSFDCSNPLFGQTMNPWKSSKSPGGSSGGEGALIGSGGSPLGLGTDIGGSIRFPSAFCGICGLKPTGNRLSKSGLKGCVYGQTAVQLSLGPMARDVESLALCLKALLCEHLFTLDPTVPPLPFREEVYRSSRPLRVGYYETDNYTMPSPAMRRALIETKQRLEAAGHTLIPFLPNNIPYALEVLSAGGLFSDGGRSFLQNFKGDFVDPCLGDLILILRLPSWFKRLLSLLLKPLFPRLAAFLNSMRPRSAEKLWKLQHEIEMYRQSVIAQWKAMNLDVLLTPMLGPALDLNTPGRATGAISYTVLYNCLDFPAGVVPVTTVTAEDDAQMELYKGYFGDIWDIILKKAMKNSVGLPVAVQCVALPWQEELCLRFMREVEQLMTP
A word on the IC50: it is the concentration needed to halve the response being measured. The compound `O[C@@H](c1ccccc1)C(F)(F)F` [(1S)‐2,2,2‐trifluoro‐1‐phenylethanol (Hit 12)] displayed an IC50 of 563 µM.
For the compound `NCc1cccc(C(F)(F)F)c1` [[3‐(trifluoromethyl)phenyl]methanamine (Hit 8)], 270 µM corresponded to half-maximal inhibition (IC50).
The result for `O=C(O)Cn1ccc(C(F)(F)F)n1` [[3‐(trifluoromethyl)pyrazol‐1‐yl]acetic acid (Hit 7)] reads 147 µM; that for `N#CCc1cccc(C(F)(F)F)c1` [2‐[3‐(trifluoromethyl)phenyl]acetonitrile (Hit 13)], 720 µM; that for `OC(c1ccc(Cl)cc1)C(F)(F)F` (stereo unspecified) [1‐(4‐chlorophenyl)‐2,2,2‐trifluoroethanol (Hit 11)], 143 µM.
The result for `O=C(Nc1cnc2[nH]ccc2c1)c1cccc(Cl)c1Cl` [2,3‐dichloro‐N‐{1H‐pyrrolo[2,3‐b]pyridin‐5‐ yl}benzamide (Compound 2)] reads 0.095 µM; that for `O=C1CCCc2c1cnc1nc(C(F)(F)F)nn21` [2‐(trifluoromethyl)‐7H,8H,9H‐[1,2,4]triazolo[1,5‐ a]quinazolin‐6‐one (Hit 2)], 3 µM; that for `CS(=O)(=O)c1ccc(N)c(F)c1` [2‐fluoro‐4‐methanesulfonylaniline (Hit 4)], 58 µM.
`Cc1ccc(OC(=O)NC2CCCCC2)cc1-c1cccc(C(N)=O)c1` [3‐(3‐carbamoylphenyl)‐4‐methylphenyl N‐ cyclohexylcarbamate (Compound 1)] showed an IC50 of 0.06 µM. This IC50 is about 970-fold lower than that of the compound before.
On to `FC(F)(F)c1cc(-c2ccccc2)nc2ncnn12` [5‐phenyl‐7‐(trifluoromethyl)‐[1,2,4]triazolo[1,5‐ a]pyrimidine (Hit 15)], for which the IC50 was 110 µM.
The same measure for `O=C(O)c1cccnc1Nc1cccc(C(F)(F)F)c1` [NSC_4488]: 162 µM; for `Oc1cccc(C(F)(F)F)c1` [M‐trifluoromethylphenol (Hit 5)]: 450 µM.
Take `O=C(c1ccc(Cl)cc1)C(F)(F)F` [1‐(4‐chlorophenyl)‐2,2,2‐trifluoroethanone (Hit 3)]: the IC50 was 26 µM.
In turn, `Nc1nc(F)nc2c1ncn2C1O[C@H](CO)[C@@H](O)[C@H]1O` (stereo partly drawn) [(3R,4S,5R)‐2‐(6‐amino‐2‐fluoropurin‐9‐yl)‐5‐ (hydroxymethyl)oxolane‐3,4‐diol (Hit 17)] registered an IC50 of 1130 µM.
The same measure for `O=C(n1nc2ccccc2n1)C(F)(F)F` [1‐(1,2,3‐benzotriazol‐2‐yl)‐2,2,2‐ trifluoroethanone (Hit 14)]: 400 µM.
Take `O=C(O)c1cc(=O)cc(C(F)(F)F)o1` [4‐oxo‐6‐(trifluoromethyl)pyran‐2‐carboxylic acid (Hit 10)]: half-maximal inhibition (IC50) was put at 137 µM.
`NC(=O)c1cccc(-c2cc(OC(=O)NC3CCCCC3)ccc2C(=O)O)c1` returned an IC50 of 4 µM.
For `O=C(O)C1(C(F)(F)F)CCC1` [1‐(trifluoromethyl)cyclobutane‐1‐carboxylic acid (Hit 9)], the IC50 was 465 µM.
Compound `OC1(C(F)(F)F)CC(c2ccccc2)N=N1` (stereo unspecified) [5‐phenyl‐3‐(trifluoromethyl)‐2,4‐dihydropyrazol‐3‐ ol (Hit 6)] displayed an IC50 of 32 µM.
In turn, `FC(F)(F)c1ccccc1N1CCNCC1` [1‐[2‐(trifluoromethyl)phenyl]piperazine hydrochloride (Hit 1)] gave an IC50 of 4.2 µM.
The result for `Nc1cccc(C(=O)Nc2cc(=O)n(CC(F)(F)F)[nH]2)c1` [3‐amino‐N‐[5‐hydroxy‐1‐(2,2,2‐ trifluoroethyl)pyrazol‐3‐yl]benzamide (Hit 18)] reads 1320 µM.
